Measured values: patent US12077503B2, “Substituted cyclic amides and their use as herbicides” (FMC CORPORATION, priority 2015, dated 2024)

What was measured:
Type in all cases: in vivo
[1] = tested on: corn (Zea mays); test: Test G Post-Emergence Protocol; conditions: Zea mays, post-emergence, 312 h; for plant injury at 15.625 g/ha: 15.625 g ai/ha, evaluated after 13 days (100=total damage to plant; 0=no damage to plant), read-out: Corn damage rating; for plant injury at 62.5 g/ha: 62.5 g ai/ha, read-out: Corn damage rating (100=total damage to plant; 0=no damage to plant); for plant injury at 62.5 g/ha / plant injury at 250 g/ha: evaluated after 13 days; for plant injury at 250 g/ha: 250 g ai/ha, read-out: damage to plant, Corn (100=total damage to plant; 0=no damage to plant)
Procedure, shortened: (§1)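 Pot-grown seedlings, 8 days old, raised in a glasshouse at 24/16 °C day/night with 14 h light and 65% humidity, were sprayed post-emergence with test compound in acetone/water (50:50) plus 0.5% Tween 20 at 15.625, 62.5 or 250 g/ha. Damage was scored visually 13 days later on a 0–100 scale (100 = total damage).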

[2] = tested on: giant foxtail (Setaria faberi); test: Test G Post-Emergence Protocol; conditions: Setaria faberi, post-emergence, 312 h; for pest or weed control at 15.625 g/ha: 15.625 g ai/ha, evaluated after 13 days (100=total damage to plant; 0=no damage to plant), read-out: Foxtail, Giant damage rating; for pest or weed control at 62.5 g/ha: 62.5 g ai/ha, read-out: Foxtail, Giant damage rating (100=total damage to plant; 0=no damage to plant); for pest or weed control at 62.5 g/ha / pest or weed control at 250 g/ha: evaluated after 13 days; for pest or weed control at 250 g/ha: 250 g ai/ha, read-out: damage to plant, Foxtail, Giant (100=total damage to plant; 0=no damage to plant)
Procedure, shortened: as §1

[3] = tested on: ivy-leaved morning glory (Ipomoea hederacea); test: Test G Post-Emergence Protocol; conditions: Ipomoea, post-emergence, 312 h; for pest or weed control at 15.625 g/ha: 15.625 g ai/ha, evaluated after 13 days (100=total damage to plant; 0=no damage to plant), read-out: Morningglory, Ivy-leaved damage rating; for pest or weed control at 62.5 g/ha: 62.5 g ai/ha, read-out: Morningglory, Ivy-leaved damage rating (100=total damage to plant; 0=no damage to plant); for pest or weed control at 62.5 g/ha / pest or weed control at 250 g/ha: evaluated after 13 days; for pest or weed control at 250 g/ha: 250 g ai/ha, read-out: damage to plant, Morningglory, Ivy-leaved (100=total damage to plant; 0=no damage to plant)
Procedure, shortened: as §1

[4] = tested on: redroot pigweed (Amaranthus retroflexus); test: Test G Post-Emergence Protocol; conditions: Amaranthus retroflexus, post-emergence, 312 h; for pest or weed control at 15.625 g/ha: 15.625 g ai/ha, evaluated after 13 days (100=total damage to plant; 0=no damage to plant), read-out: Pigweed, Redroot damage rating; for pest or weed control at 62.5 g/ha: 62.5 g ai/ha, read-out: Pigweed, Redroot damage rating (100=total damage to plant; 0=no damage to plant); for pest or weed control at 62.5 g/ha / pest or weed control at 250 g/ha: evaluated after 13 days; for pest or weed control at 250 g/ha: 250 g ai/ha, read-out: damage to plant, Pigweed, Redroot (100=total damage to plant; 0=no damage to plant)
Procedure, shortened: as §1

[5] = tested on: barnyardgrass (Echinochloa crus-galli); test: Test G Post-Emergence Protocol; conditions: Echinochloa crus-galli, post-emergence, 312 h; for pest or weed control at 15.625 g/ha: 15.625 g ai/ha, evaluated after 13 days (100=total damage to plant; 0=no damage to plant), read-out: Barnyardgrass damage rating; for pest or weed control at 62.5 g/ha: 62.5 g ai/ha, read-out: Barnyardgrass damage rating (100=total damage to plant; 0=no damage to plant); for pest or weed control at 62.5 g/ha / pest or weed control at 250 g/ha: evaluated after 13 days; for pest or weed control at 250 g/ha: 250 g ai/ha, read-out: damage to plant, Barnyardgrass (100=total damage to plant; 0=no damage to plant)
Procedure, shortened: as §1

[6] = tested on: velvetleaf (Abutilon theophrasti); test: Test G Post-Emergence Protocol; conditions: Abutilon theophrasti, post-emergence, 312 h; for pest or weed control at 15.625 g/ha: 15.625 g ai/ha, evaluated after 13 days (100=total damage to plant; 0=no damage to plant), read-out: Velvetleaf damage rating; for pest or weed control at 62.5 g/ha: 62.5 g ai/ha, read-out: Velvetleaf damage rating (100=total damage to plant; 0=no damage to plant); for pest or weed control at 62.5 g/ha / pest or weed control at 250 g/ha: evaluated after 13 days; for pest or weed control at 250 g/ha: 250 g ai/ha, read-out: damage to plant, Velvetleaf (100=total damage to plant; 0=no damage to plant)
Procedure, shortened: as §1

[7] = tested on: corn (Zea mays); test: Test G Pre-Emergence Protocol; conditions: Zea mays, pre-emergence, 312 h, evaluated after 13 days; for plant injury at 15.625 g/ha: 15.625 g ai/ha; for plant injury at 15.625 g/ha / plant injury at 250 g/ha: read-out: Corn damage rating (100=total damage to plant; 0=no damage to plant); for plant injury at 62.5 g/ha: 62.5 g ai/ha, 100=total damage to plant, 0=no damage to plant, read-out: plant damage rating, Corn; for plant injury at 250 g/ha: 250 g ai/ha
Procedure, shortened: (§2)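 Glasshouse pre-emergence test: soil-sown seeds, sprayed after 1 d at 15.625, 62.5 or 250 g/ha. Conditions 24/16° C day/night, 14 h light, 65% humidity, watering twice daily. Rating 13 d post-spray (100 = total damage).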

[8] = tested on: giant foxtail (Setaria faberi); test: Test G Pre-Emergence Protocol; conditions: Setaria faberi, pre-emergence, 312 h, evaluated after 13 days; for pest or weed control at 15.625 g/ha: 15.625 g ai/ha; for pest or weed control at 15.625 g/ha / pest or weed control at 250 g/ha: read-out: Foxtail, Giant damage rating (100=total damage to plant; 0=no damage to plant); for pest or weed control at 62.5 g/ha: 62.5 g ai/ha, 100=total damage to plant, 0=no damage to plant, read-out: plant damage rating, Foxtail, Giant; for pest or weed control at 250 g/ha: 250 g ai/ha
Procedure, shortened: as §2

[9] = tested on: ivy-leaved morning glory (Ipomoea hederacea); test: Test G Pre-Emergence Protocol; conditions: Ipomoea, pre-emergence, 312 h, evaluated after 13 days; for pest or weed control at 15.625 g/ha: 15.625 g ai/ha, read-out: Morning-glory, Ivy-leaved damage rating (100=total damage to plant; 0=no damage to plant); for pest or weed control at 62.5 g/ha: 62.5 g ai/ha, 100=total damage to plant, 0=no damage to plant, read-out: plant damage rating, Morningglory, Ivy-leaved; for pest or weed control at 250 g/ha: 250 g ai/ha, read-out: Morningglory, Ivy-leaved damage rating (100=total damage to plant; 0=no damage to plant)
Procedure, shortened: as §2

[10] = tested on: redroot pigweed (Amaranthus retroflexus); test: Test G Pre-Emergence Protocol; conditions: Amaranthus retroflexus, pre-emergence, 312 h, evaluated after 13 days; for pest or weed control at 15.625 g/ha: 15.625 g ai/ha; for pest or weed control at 15.625 g/ha / pest or weed control at 250 g/ha: read-out: Pigweed, Redroot damage rating (100=total damage to plant; 0=no damage to plant); for pest or weed control at 62.5 g/ha: 62.5 g ai/ha, 100=total damage to plant, 0=no damage to plant, read-out: plant damage rating, Pigweed, Redroot; for pest or weed control at 250 g/ha: 250 g ai/ha
Procedure, shortened: as §2

[11] = tested on: barnyardgrass (Echinochloa crus-galli); test: Test G Pre-Emergence Protocol; conditions: Echinochloa crus-galli, pre-emergence, 312 h, evaluated after 13 days; for pest or weed control at 15.625 g/ha: 15.625 g ai/ha, read-out: Barnyard grass damage rating (100=total damage to plant; 0=no damage to plant); for pest or weed control at 62.5 g/ha: 62.5 g ai/ha, 100=total damage to plant, 0=no damage to plant, read-out: plant damage rating, Barnyardgrass; for pest or weed control at 250 g/ha: 250 g ai/ha, read-out: Barnyardgrass damage rating (100=total damage to plant; 0=no damage to plant)
Procedure, shortened: as §2

[12] = tested on: velvetleaf (Abutilon theophrasti); test: Test G Pre-Emergence Protocol; conditions: Abutilon theophrasti, pre-emergence, 312 h, evaluated after 13 days; for pest or weed control at 15.625 g/ha: 15.625 g ai/ha; for pest or weed control at 15.625 g/ha / pest or weed control at 250 g/ha: read-out: Velvetleaf damage rating (100=total damage to plant; 0=no damage to plant); for pest or weed control at 62.5 g/ha: 62.5 g ai/ha, 100=total damage to plant, 0=no damage to plant, read-out: plant damage rating, Velvetleaf; for pest or weed control at 250 g/ha: 250 g ai/ha
Procedure, shortened: as §2

Row | SMILES | plant injury at 15.625 g/ha [1] [%] | plant injury at 62.5 g/ha [1] [%] | plant injury at 250 g/ha [1] [%] | pest or weed control at 15.625 g/ha [2] [%] | pest or weed control at 62.5 g/ha [2] [%] | pest or weed control at 250 g/ha [2] [%] | pest or weed control at 15.625 g/ha [3] [%] | pest or weed control at 62.5 g/ha [3] [%] | pest or weed control at 250 g/ha [3] [%] | pest or weed control at 15.625 g/ha [4] [%] | pest or weed control at 62.5 g/ha [4] [%] | pest or weed control at 250 g/ha [4] [%] | pest or weed control at 15.625 g/ha [5] [%] | pest or weed control at 62.5 g/ha [5] [%] | pest or weed control at 250 g/ha [5] [%] | pest or weed control at 15.625 g/ha [6] [%] | pest or weed control at 62.5 g/ha [6] [%] | pest or weed control at 250 g/ha [6] [%] | plant injury at 15.625 g/ha [7] [%] | plant injury at 62.5 g/ha [7] [%] | further results
1 | Cc1ncsc1NC(=O)[C@@H]1C(=O)N(C)C[C@H]1c1ccc(C(F)(F)F)cc1 (racemic) [Compound 1635] | 0 | 0 | 0 | 0 | 10 | 40 | 0 | 0 | 0 | 0 | 0 | 10 | 0 | 0 | 30 | 0 | 0 | 0 | 0 | 0 | plant injury at 250 g/ha [7]: 0%; pest or weed control at 15.625 g/ha [8]: 0%; pest or weed control at 62.5 g/ha [8]: 0%; pest or weed control at 250 g/ha [8]: 0%; pest or weed control at 15.625 g/ha [9]: 0%; pest or weed control at 62.5 g/ha [9]: 0%; pest or weed control at 250 g/ha [9]: 0%; pest or weed control at 15.625 g/ha [10]: 0%; pest or weed control at 62.5 g/ha [10]: 0%; pest or weed control at 250 g/ha [10]: 0%; pest or weed control at 15.625 g/ha [11]: 0%; pest or weed control at 62.5 g/ha [11]: 0%; pest or weed control at 250 g/ha [11]: 0%; pest or weed control at 15.625 g/ha [12]: 0%; pest or weed control at 62.5 g/ha [12]: 0%; pest or weed control at 250 g/ha [12]: 0%
2 | Cc1nc(NC(=O)[C@@H]2C(=O)N(C)C[C@H]2c2ccc(C(F)(F)F)cc2)ccc1Cl (racemic) [Compound 1642] | 0 | 0 | 0 | 0 | 30 | 70 | 0 | 0 | 0 | 0 | 0 | 20 | 0 | 0 | 10 | 0 | 0 | 0 | 0 | 0 | plant injury at 250 g/ha [7]: 10%; pest or weed control at 15.625 g/ha [8]: 0%; pest or weed control at 62.5 g/ha [8]: 0%; pest or weed control at 250 g/ha [8]: 20%; pest or weed control at 15.625 g/ha [9]: 0%; pest or weed control at 62.5 g/ha [9]: 0%; pest or weed control at 250 g/ha [9]: 0%; pest or weed control at 15.625 g/ha [10]: 0%; pest or weed control at 62.5 g/ha [10]: 0%; pest or weed control at 250 g/ha [10]: 0%; pest or weed control at 15.625 g/ha [11]: 0%; pest or weed control at 62.5 g/ha [11]: 0%; pest or weed control at 250 g/ha [11]: 0%; pest or weed control at 15.625 g/ha [12]: 0%; pest or weed control at 62.5 g/ha [12]: 0%; pest or weed control at 250 g/ha [12]: 0%
3 | CSc1nc(N)cc(NC(=O)[C@@H]2C(=O)N(C)C[C@H]2c2ccc(C(F)(F)F)cc2)n1 (racemic) [Compound 1644] | 0 | 0 | 0 | 0 | 20 | 30 | 0 | 10 | 40 | 0 | 0 | 0 | 0 | 0 | 20 | 0 | 0 | 0 | 0 | 0 | plant injury at 250 g/ha [7]: 0%; pest or weed control at 15.625 g/ha [8]: 0%; pest or weed control at 62.5 g/ha [8]: 0%; pest or weed control at 250 g/ha [8]: 0%; pest or weed control at 15.625 g/ha [9]: 0%; pest or weed control at 62.5 g/ha [9]: 0%; pest or weed control at 250 g/ha [9]: 0%; pest or weed control at 15.625 g/ha [10]: 0%; pest or weed control at 62.5 g/ha [10]: 0%; pest or weed control at 250 g/ha [10]: 0%; pest or weed control at 15.625 g/ha [11]: 0%; pest or weed control at 62.5 g/ha [11]: 0%; pest or weed control at 250 g/ha [11]: 0%; pest or weed control at 15.625 g/ha [12]: 0%; pest or weed control at 62.5 g/ha [12]: 0%; pest or weed control at 250 g/ha [12]: 0%
